Test results from publication PMC4992173, “Divergent synthesis and identification of the cellular targets of deoxyelephantopins” (Nature Communications, 2016).

Biological target: T1, PPARγ C176A (Homo sapiens, UniProt P37231, C176A)
T1 construct: host or cells: 293T
Assay: Gel-based competitive IC50 determination in 293T lysates: C176A PPARγ
Assay type: binding
Conditions: C176A PPARγ expressed in 293T cells, lysate, 1 h, then 10 μM 24c-Cy3
Text: Finally, we sought to understand the molecular basis for PPARγ binding by the synthetic analogues of deoxyelephantopin through identification of the precise covalently modified amino acid site. There is literature precedent for oxidized fatty acids containing an α,β-unsaturated ketone to form a covalent bond with a cysteine in the ligand-binding site of PPARγ[53]. More recently, synthetic ligands binding reversibly to a distinct site were identified. […] Bearing in mind that the structurally simplified, and thus less prone to MS/MS fragmentation, probe 23c binds PPARγ as efficiently as 24c (Supplementary Fig. 13), we treated the recombinant nuclear receptor with the former compound, digested the protein and analysed the resulting peptides by LC–MS/MS. […]
Supplementary figure 21: Top: Fluorescence gels corresponding to the IC50 curves presented in the main text Figure 8b. γ fluorescence signal in percentage after 19a treatment. […]
Biological materials. […] Protein concentration was determined using the Bradford assay (Bio-Rad).
Cell culture and preparation of lysates. […] Cells were lysed by sonication to form cell lysates and protein concentration was determined using the Bradford […]

T1 sequence (P37231 whole entry C176A): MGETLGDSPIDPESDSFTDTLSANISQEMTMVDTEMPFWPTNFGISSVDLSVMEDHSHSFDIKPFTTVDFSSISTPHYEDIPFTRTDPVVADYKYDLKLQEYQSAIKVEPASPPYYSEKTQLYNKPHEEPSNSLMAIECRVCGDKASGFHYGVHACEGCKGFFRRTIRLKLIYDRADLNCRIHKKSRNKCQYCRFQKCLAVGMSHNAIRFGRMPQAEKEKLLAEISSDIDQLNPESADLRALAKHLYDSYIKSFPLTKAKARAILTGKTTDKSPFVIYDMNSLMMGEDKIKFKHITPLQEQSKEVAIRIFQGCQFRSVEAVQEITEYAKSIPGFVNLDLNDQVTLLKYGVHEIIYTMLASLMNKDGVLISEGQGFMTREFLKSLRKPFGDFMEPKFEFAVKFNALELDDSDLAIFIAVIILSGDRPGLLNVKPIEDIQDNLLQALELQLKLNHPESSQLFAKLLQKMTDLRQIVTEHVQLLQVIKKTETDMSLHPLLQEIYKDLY

Work on `C=C(C)C(=O)O[C@H]1CC2=C[C@H](C/C=C\[C@H]3OC(=O)C(=C)[C@H]13)OC2=O` [19a] yielded an IC50 of 33 µM.
